{"source": "patent US20250281496A1", "about": "“METHODS OF TREATING NEUROPATHY USING FORETINIB AND COMPOSITIONS THEREOF” (INDIANA UNIVERSITY RESEARCH AND TECHNOLOGY CORPORATION, priority 2022, published 2025)", "system": "experimental diabetic neuropathy", "assay": "Three-dimensional assessment of cutaneous innervation (volumetric nerve fiber density) in STZ-diabetic mice", "assay_type": "in vivo", "details": "30 mg/kg oral daily; 5 weeks post-STZ; non-treated 44.9%, vehicle 37.8%", "procedure": "In total, 20 mice were injected with 100 mg/kg bodyweight of streptozotocin (STZ, […], Sigma Aldrich) in 0.1M citrate buffer (pH 4.5) on two consecutive days respectively, to induce diabetes type 1^27. Prior to the first injection and in weekly intervals thereafter, all animals were weighted and underwent tail prick blood sugar measurements using a clinical grade monitoring system (Contour One, Ascensia Diabetes Care, Mississauga, Ontario) as previously described. Mice were considered diabetic when blood glucose was at least 15 mmol/L (270 mg/dl). Prior to diabetes induction the mice were block randomized into experimental groups (n=10 Foretinib treatment, n=5 vehicle treatment, n=5 non-treated diabetic control). An additional 5 non-diabetic animals served as a healthy control. Foretinib treatments started 1-week post-diabetes induction. Foretinib was prepared fresh daily by dissolving 6 mg Foretinib in 1 ml of 1% (Hydroxypropyl)-methyl cellulose (09963, Sigma Aldrich) and 0.2% sodium dodecyl sulfate ([…], Sigma Aldrich) in sterile H2O. […] Cutaneous nerve fibers were semiautomatically traced using batch processing with consistent fluorescence intensity thresholds across the entire data set. Volumetric nerve fiber density was determined as total nerve fiber volume per skin tissue volume for an 830×830×200 μm region of interest.", "data": [{"smiles": "COc1cc2c(Oc3ccc(NC(=O)C4(C(=O)Nc5ccc(F)cc5)CC4)cc3F)ccnc2cc1OCCCN1CCOCC1", "note": "[Foretinib, N1-[3-Fluoro-4-({6-methoxy-7-[3-(morpholin-4-yl)propoxy]quinolin-4-yl}oxy)phenyl]-N′1-(4-fluorophenyl)cyclopropane-1,1-dicarboxamide]", "values": [{"measurement": "cutaneous nerve fiber density as % of non-diabetic reference", "result": 67.3, "unit": "%"}]}]}
